Measurements as given in patent US10738056B2 (Aduro BioTech, Inc., priority 2017, dated 2020).

Tests used:
[1] = system: cGAS/STING pathway in THP1 cells; test: THP1 cell-based cGAS/STING pathway activity assay (IRF-3-linked luciferase reporter); conditions: Homo sapiens, THP-1
In short: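 THP1 cells carrying an IRF-3-driven luciferase reporter were read across a range of compound concentrations, and IC50 values were derived from these concentration responses; the assay upper limit was 100 μM.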

[2] = target: Human cGAS amino acids 155-522 (Homo sapiens (Human), UniProt Q8N884); test: cGAS biochemical activity assay (ATP remaining, Kinase-Glo Max luminescence); conditions: human cGAS 155-522, ATP remaining (Kinase-Glo Max); read-out: cGAS IC50
Chain of Human cGAS amino acids 155-522 (Q8N884 157-522): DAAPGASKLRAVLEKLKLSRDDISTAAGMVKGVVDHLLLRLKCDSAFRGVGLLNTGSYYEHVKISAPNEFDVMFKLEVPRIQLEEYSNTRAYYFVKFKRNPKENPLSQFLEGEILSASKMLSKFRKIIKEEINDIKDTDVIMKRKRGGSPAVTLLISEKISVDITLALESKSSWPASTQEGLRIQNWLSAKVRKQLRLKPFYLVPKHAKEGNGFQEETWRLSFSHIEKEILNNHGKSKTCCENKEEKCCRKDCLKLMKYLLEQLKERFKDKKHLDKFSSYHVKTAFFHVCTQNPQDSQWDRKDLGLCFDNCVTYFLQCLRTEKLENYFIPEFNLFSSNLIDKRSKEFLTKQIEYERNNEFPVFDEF

SMILES	IC50 [1]	IC50 [2]
Cc1[nH]c2c(-c3ccccc3)c(C(F)(F)F)nn2c(=O)c1-c1nc2ccc(N)cc2o1 [Compound C1156, 6-(6-aminobenzo[d]oxazol-2-yl)-5-methyl-3-phenyl-2-(trifluoromethyl)pyrazolo[1,5-a]pyrimidin-7(4H)-one]	20 to 100 µM	< 20 µM
COc1cc(NC(=O)c2c(C)[nH]c3c(-c4ccccc4)c(C(F)(F)F)nn3c2=O)cc(OC)c1 [Compound A1067, N-(3,5-dimethoxyphenyl)-5-methyl-7-oxo-3-phenyl-2-(trifluoromethyl)-4,7-dihydropyrazolo[1,5-a]pyrimidine-6-carboxamide]	> 100 µM	< 20 µM
Cc1cnc(NC(=O)c2c(C)[nH]c3c(-c4ccccc4)c(C(F)(F)F)nn3c2=O)o1 [Compound A1075, 5-methyl-N-(5-methyloxazol-2-yl)-7-oxo-3-phenyl-2-(trifluoromethyl)-4,7-dihydropyrazolo[1,5-a]pyrimidine-6-carboxamide]	20 to 100 µM	< 20 µM
CC(=O)N1CCOCC1c1nnc(-c2c(C)[nH]c3c(-c4ccccc4)c(C(F)(F)F)nn3c2=O)o1 (stereo not drawn) [Compound D1050, 6-(5-(4-acetylmorpholin-3-yl)-1,3,4-oxadiazol-2-yl)-5-methyl-3-phenyl-2-(trifluoromethyl)pyrazolo[1,5-a]pyrimidin-7(4H)-one]	> 100 µM	20 to 250 µM
COc1cccc2oc(-c3c(CS(C)(=O)=O)[nH]c4c(-c5ccccc5)c(C(F)(F)F)nn4c3=O)nc12 [Compound C1138, 6-(4-methoxybenzo[d]oxazol-2-yl)-5-((methylsulfonyl)methyl)-3-phenyl-2-(trifluoromethyl)pyrazolo[1,5-a]pyrimidin-7(4H)-one]	> 100 µM	< 20 µM
Cc1[nH]c2c(-c3ccccc3)c(C(F)(F)F)nn2c(=O)c1-c1nnc(C2CCCO2)o1 (stereo not drawn) [Compound D1012, 5-methyl-3-phenyl-6-(5-(tetrahydrofuran-2-yl)-1,3,4-oxadiazol-2-yl)-2-(trifluoromethyl)pyrazolo[1,5-a]pyrimidin-7(4H)-one]	> 100 µM	< 20 µM
Cc1[nH]c2c(-c3ccccc3)c(C(F)(F)F)nn2c(=O)c1-c1nnc(C2COCCN2)o1 (stereo not drawn) [Compound D1042, 5-methyl-6-(5-(morpholin-3-yl)-1,3,4-oxadiazol-2-yl)-3-phenyl-2-(trifluoromethyl)pyrazolo[1,5-a]pyrimidin-7(4H)-one]	> 100 µM	20 to 250 µM
Cc1[nH]c2c(-c3ccccc3)c(C(F)(F)F)nn2c(=O)c1C(=O)Nc1cnn(C)c1 [Compound A1077, 5-methyl-N-(1-methyl-1H-pyrazol-4-yl)-7-oxo-3-phenyl-2-(trifluoromethyl)-4,7-dihydropyrazolo[1,5-a]pyrimidine-6-carboxamide]	> 100 µM	< 20 µM
COc1cccc2oc(-c3c(C(=O)NCC(O)C(F)(F)F)[nH]c4c(-c5ccccc5)c(C(F)(F)F)nn4c3=O)nc12 (stereo not drawn) [Compound C1209, 6-(4-methoxybenzo[d]oxazol-2-yl)-7-oxo-3-phenyl-N-(3,3,3-trifluoro-2-hydroxypropyl)-2-(trifluoromethyl)-4,7-dihydropyrazolo[1,5-a]pyrimidine-5-carboxamide]	> 100 µM	< 20 µM
Cc1[nH]c2c(-c3ccccc3)c(C(F)(F)F)nn2c(=O)c1-c1nnc(C(C)(O)C(F)(F)F)o1 (stereo not drawn) [Compound D1008, 5-methyl-3-phenyl-6-(5-(1,1,1-trifluoro-2-hydroxypropan-2-yl)-1,3,4-oxadiazol-2-yl)-2-(trifluoromethyl)pyrazolo[1,5-a]pyrimidin-7(4H)-one]	> 100 µM	20 to 250 µM
Cc1nnc(-c2c(C)[nH]c3c(-c4ccccc4)c(C(F)(F)F)nn3c2=O)[nH]1 [Compound C1020, 5-methyl-6-(5-methyl-4H-1,2,4-triazol-3-yl)-3-phenyl-2-(trifluoromethyl)pyrazolo[1,5-a]pyrimidin-7(4H)-one]	> 100 µM	20 to 250 µM
Cc1[nH]c2c(-c3ccccc3)c(C(F)(F)F)nn2c(=O)c1C(=O)Nc1cc[nH]n1 [Compound A1076, 5-methyl-7-oxo-3-phenyl-N-(1H-pyrazol-3-yl)-2-(trifluoromethyl)-4,7-dihydropyrazolo[1,5-a]pyrimidine-6-carboxamide]	20 to 100 µM	< 20 µM
C=Cc1nn2c(=O)c(-c3nc4c(OC)cccc4o3)c(C)[nH]c2c1-c1ccccc1 [Compound C1241, 6-(4-methoxybenzo[d]oxazol-2-yl)-5-methyl-3-phenyl-2-vinylpyrazolo[1,5-a]pyrimidin-7(4H)-one]	< 20 µM	< 20 µM
COC1CCCCC1NC(=O)c1c(C)[nH]c2c(-c3ccccc3)c(C(F)(F)F)nn2c1=O (single isomer, unassigned) [Compound A1089, N-(2-methoxycyclohexyl)-5-methyl-7-oxo-3-phenyl-2-(trifluoromethyl)-4,7-dihydropyrazolo[1,5-a]pyrimidine-6-carboxamide]	> 100 µM	< 20 µM
COCCOCc1[nH]c2c(-c3ccccc3)c(C#N)nn2c(=O)c1-c1nc2c(OC)cccc2o1 [Compound C1243, 6-(4-methoxybenzo[d]oxazol-2-yl)-5-((2-methoxyethoxy)methyl)-7-oxo-3-phenyl-4,7-dihydropyrazolo[1,5-a]pyrimidine-2-carbonitrile]	< 20 µM	< 20 µM
COc1cccc2nc(-c3c(C)[nH]c4c(-c5ccccc5)c(C(F)(F)F)nn4c3=O)n(C)c12 [Compound C1065, 6-(7-methoxy-1-methyl-1H-benzo[d]imidazol-2-yl)-5-methyl-3-phenyl-2-(trifluoromethyl)pyrazolo[1,5-a]pyrimidin-7(4H)-one]	> 100 µM	20 to 250 µM
Cc1[nH]c2c(-c3ccccc3)c(C#N)nn2c(=O)c1-c1ccccc1 [Compound C1273, 5-methyl-7-oxo-3,6-diphenyl-4,7-dihydropyrazolo[1,5-a]pyrimidine-2-carbonitrile]	< 20 µM	< 20 µM
Cc1[nH]c2c(-c3ccccc3)c(C(F)(F)F)nn2c(=O)c1C(=O)Nc1cccnc1S(C)(=O)=O [Compound A1096, 5-methyl-N-(2-(methylsulfonyl)pyridin-3-yl)-7-oxo-3-phenyl-2-(trifluoromethyl)-4,7-dihydropyrazolo[1,5-a]pyrimidine-6-carboxamide]	20 to 100 µM	< 20 µM
Cc1[nH]c2c(-c3ccccc3)c(C(F)(F)F)nn2c(=O)c1-c1nn(C(C)C)c(=O)o1 [Compound C1023, 3-isopropyl-5-(5-methyl-7-oxo-3-phenyl-2-(trifluoromethyl)-4,7-dihydropyrazolo[1,5-a]pyrimidin-6-yl)-1,3,4-oxadiazol-2(3H)-one]	> 100 µM	< 20 µM
Cc1[nH]c2c(-c3ccccc3)c(C(F)(F)F)nn2c(=O)c1-c1nc2c(o1)CCCNC2=O [Compound C1059, 2-(5-methyl-7-oxo-3-phenyl-2-(trifluoromethyl)-4,7-dihydropyrazolo[1,5-a]pyrimidin-6-yl)-5,6,7,8-tetrahydro-4H-oxazolo[4,5-c]azepin-4-one]	> 100 µM	< 20 µM
Cc1[nH]c2c(-c3ccccc3)c(C(F)(F)F)nn2c(=O)c1-c1nnc(C2(C)CCCC2)o1 [Compound D1023, 5-methyl-6-(5-(1-methylcyclopentyl)-1,3,4-oxadiazol-2-yl)-3-phenyl-2-(trifluoromethyl)pyrazolo[1,5-a]pyrimidin-7(4H)-one]	> 100 µM	< 20 µM
